How the values were obtained:
[1] = Human liver microsomal stability assay; assay type: in vitro ADME; conditions: human liver microsomes
Text: Further examples of useful assays include metabolic stability assays, such as but not limited to e.g., liver microsomal clearance assays which provide measurement such as, but not limited to e.g., liver microsomal clearance half-life (t1/2), liver microsomal intrinsic clearance (CLint), and the like. Such measurements are useful in assessing various characteristics of a subject compound, such as e.g., the availability of an intact compound to provide a pharmacological effect. A compound having a longer microsomal clearance half-life (t1/2), e.g., than a reference compound, will provide better exposure of the intact compound and greater availability to produce the relevant pharmacological effect. A compound having a less microsomal clearance, e.g., as measured by liver microsomal intrinsic clearance (CLint), will similarly result in greater exposure of the intact compound available for an increase in the relevant pharmacological effect, e.g., as compared to that of a reference compound with a higher liver microsomal intrinsic clearance (CLint). Other useful assays include in vitro hepatocyte metabolic stability assays.
Such assessments included human and mouse liver microsomal stability assays as well as 6-hour mouse PK studies.

[2] = system: DMT1-deficient Caco-2 cells; experiment: shDMT1-Caco2 55Fe transport assay; assay type: cell-based; conditions: 3 μM, 4 h; fold change over DMSO normalized to hinokitiol at 3 μM (FC hino=1)
Text: Assay 2: shDMT1-Caco2 ^55Fe Transport Assay to Assess Ligand Ability in Transporting Fe (III)
Cells: DMT1-deficient Caco-2 cells (alias: “shDMT1,” or “4A” cells) were from Grillo et al. Science, 2017, and were cryopreserved in liquid nitrogen prior to use.
Reagents and supplies: ^55FeCl3 was obtained from PerkinElmer (Boston, MA). Iron(III) chloride (FeCl3) hexahydrate was obtained from Sigma. Dulbecco's Modified Eagle Medium (DMEM), fetal bovine serum (FBS), L-glutamine, MEM nonessential amino acids, penicillin-streptomycin, G418, formic acid, methanol, high-purity water, ammonium formate, dimethyl sulfoxide (DMSO) were purchased from Fisher Scientific. Propranolol, atenolol and carbutamide were obtained from Sigma-Aldrich Chemical Company (St Louis, MO). Scintillation cocktail was obtained from Research Product International Co. (Mount Prospect, IL). Stericup filter system (PES membrane, 0.22 um pore size) was purchased from Fisher Scientific. Corning item #3378 24-well transwell insert plates.
Test articles: known compounds hinokitiol and deferiprone were purchased from Sigma. They are tested side by side with the small molecule ligands disclosed in this application. DMSO stocks (10 mM, which is 1,000× of the 10 μM dose level) of hinokitiol or test articles were prepared. A stock solution of 25 mM deferiprone in DMSO was prepared. The DMSO stock solutions were stored at −20° C. or below when not in use.
The growth medium was prepared according to the following table
Apical media (serum free DMEM, 10 mM MES, pH 6.5) was prepared. Apical master mix media was prepared fresh with the addition of 200 nM ^55Fe before each experiment. For the negative control propranolol and atenolol wells, 200 nM of non-radioactive iron was used.
The basolateral media was serum-free DMEM, 10 mM HEPES, 2% bovine serum albumin (BSA), pH 7.4.
For each experiment, cells were seeded into the 24-well transwell plates (0.5 mL of 50,000 cells/mL) with growth media. The basolateral companion plate was loaded with 1 mL of growth media. After 12-24 hr, both the apical and basolateral chamber were replaced with growth media. The apical media was changed 3× per week for 21-28 days, including a media change exactly 48 hr before the assay date.
On the assay day, the TEER values were measured and the average TEER value was obtained. Individual wells with TEER value >35% lower than the average of all wells were excluded. For the qualified wells, the apical layer (twice) and basolaterial (once) chambers were washed with PBS. The basolateral companion plate was then filled with 1 mL of basolateral media. Via addition down the side-wall of the apical well, 300 μL per well of the apical assay master mix, with the indicated dose level of test article, was added. Each dose was tested in triplicate. The plates were incubated (5% CO2 and 90% humidity at 37° C.) for the indicated timepoints. At each indicated timepoint, the basolateral supernatant was gently mixed via pipetting, and 200 μL of the basolateral supernatant was transferred to scintillation vials. To each scintillation counting vial, 5 mL of scintillation cocktail fluid was added. For each scintillation vial, the radioactivity (CPM) was determined with liquid scintillation counter LS6500. The counting time per vial was 5 min.
All raw CPM values are divided by the average value of blank DMSO solution to give a fold of change above the DMSO value. The mean and standard deviation of each compound at each concentration level and at each time point measured was calculated to give the fold change (fc) value. For rank order compounds, the fc value of a ligand at 4 h time point is further divided by the fold change (fc) value of hinokitiol (a positive control compound) at an equimolar concentration to arrive at the FC (normalized fold of change) value. Data reported in Tables 1 and 2 is 4 hr time point FC=fc-ligand @ 3 uM/fc-hino @ 3 μM, and FC hino=1.

CC(C)c1cccc(=O)c(O)c1 [hinokitiol, reference compound]
microsomal CLint ([1]; read-out: Human CLint): 120 µL/min/mg
half-life ([1]; read-out: Human t1/2): 11.6 min
Caco2 shDMT1 transport FC @ 3 μM, 4 h [2]: 1

From patent US20230406803A1, “TROPOLONE DERIVATIVES AND TAUTOMERS THEREOF FOR IRON REGULATION IN ANIMALS” (Kinesid Therapeutics, Inc, priority 2020, published 2023)
